Source: patent US9517993B2, “Antagonists of the toll-like receptor 1/2 complex” (THE REGENTS OF THE UNIVERSITY OF COLORADO, a body corporate, priority 2012, dated 2016)

Experiments:
[1] = target: T1, TLR3 (Mus musculus, UniProt Q99MB1); assay: RAW 264.7 nitric oxide TLR selectivity assay (Poly (I:C)); assay type: cell-based; settings: 15 μg/mL Poly (I:C)
T1 construct: RAW 264.7 Cells Nitric Oxide TLR Selectivity Assay; endogenous in cells; host or cells: RAW 264.7
T1 sequence (Q99MB1 26-905): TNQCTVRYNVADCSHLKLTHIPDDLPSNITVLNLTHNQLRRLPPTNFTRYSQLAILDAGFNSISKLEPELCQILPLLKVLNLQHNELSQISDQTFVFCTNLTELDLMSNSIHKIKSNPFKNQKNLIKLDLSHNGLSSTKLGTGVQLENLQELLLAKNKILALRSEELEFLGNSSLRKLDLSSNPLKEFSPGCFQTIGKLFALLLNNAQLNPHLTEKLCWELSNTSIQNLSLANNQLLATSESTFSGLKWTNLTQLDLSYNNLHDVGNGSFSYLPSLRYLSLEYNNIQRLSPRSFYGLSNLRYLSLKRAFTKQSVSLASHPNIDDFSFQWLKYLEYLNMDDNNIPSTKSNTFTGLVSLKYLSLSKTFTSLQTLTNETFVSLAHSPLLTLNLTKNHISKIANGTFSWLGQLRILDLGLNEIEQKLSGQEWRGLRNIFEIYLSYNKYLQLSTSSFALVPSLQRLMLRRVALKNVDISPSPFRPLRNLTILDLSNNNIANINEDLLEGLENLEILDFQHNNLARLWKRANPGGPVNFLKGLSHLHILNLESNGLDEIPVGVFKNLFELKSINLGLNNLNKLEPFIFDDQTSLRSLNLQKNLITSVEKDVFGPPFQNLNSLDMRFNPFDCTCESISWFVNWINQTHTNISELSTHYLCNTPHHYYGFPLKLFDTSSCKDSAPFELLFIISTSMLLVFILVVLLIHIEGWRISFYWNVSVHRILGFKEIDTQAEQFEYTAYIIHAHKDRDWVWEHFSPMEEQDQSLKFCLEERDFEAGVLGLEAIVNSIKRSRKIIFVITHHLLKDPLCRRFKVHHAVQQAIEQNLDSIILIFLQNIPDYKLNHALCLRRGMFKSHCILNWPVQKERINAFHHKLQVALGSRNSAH
Method: (§1) RAW 264.7 (Mouse leukaemic monocyte macrophage cell line) cells were grown in RPMI 1640 medium, supplemented with 10% FBS, penicillin (100 U/mL) and streptomycin ([…]). RAW cells were then planted in 96-well plates at 80,000 cells per well and grown for 24 h in the media descried previously at 37° C. in a 5% CO2 humidified incubator. After 24 h, non-adherent cells and media were removed and replaced with fresh unsupplemented RPMI 1640 medium. The adherent macrophages were treated with Pam3CSK4 (CAS No. 112208-00-1; a synthetic triacylated lipopeptide (LP) that mimics the acylated amino terminus of bacterial LPs) (200 ng/mL) (Invivogen, USA), an agonist of TLR1/2, and then added different concentrates of potential inhibitor. Two rows were only treated with Pam3CSK4 as control. […] The reaction was quenched by addition of 5 μL of a 3 M aqueous NaOH solution and the plate was read on Beckman Coulter DTX880 reader (Beckman Coulter, Calif., USA) with excitation at 365 nm and emission at 450 nm. The nitrite (a stable metabolite of nitric oxide) concentration was determined from a nitrite standard curve. The inhibition rate (%) of NO release was determined using the following formula: Inhibition (%)=[Pam3CSK4(OD450) […]]/[Pam3CSK4 (OD450)−Control (OD450)]×100. The IC50 values for both inhibition and cytotoxicity were determined graphically using software Origin v7.5. […]

[2] = target: T2, TLR7 (Mus musculus, UniProt P58681); assay: RAW 264.7 nitric oxide TLR selectivity assay (R848); assay type: cell-based; settings: 100 nM R848
T2 construct: RAW 264.7 Cells Nitric Oxide TLR Selectivity Assay; endogenous in cells; host or cells: RAW 264.7
T2 sequence (P58681 27-1050): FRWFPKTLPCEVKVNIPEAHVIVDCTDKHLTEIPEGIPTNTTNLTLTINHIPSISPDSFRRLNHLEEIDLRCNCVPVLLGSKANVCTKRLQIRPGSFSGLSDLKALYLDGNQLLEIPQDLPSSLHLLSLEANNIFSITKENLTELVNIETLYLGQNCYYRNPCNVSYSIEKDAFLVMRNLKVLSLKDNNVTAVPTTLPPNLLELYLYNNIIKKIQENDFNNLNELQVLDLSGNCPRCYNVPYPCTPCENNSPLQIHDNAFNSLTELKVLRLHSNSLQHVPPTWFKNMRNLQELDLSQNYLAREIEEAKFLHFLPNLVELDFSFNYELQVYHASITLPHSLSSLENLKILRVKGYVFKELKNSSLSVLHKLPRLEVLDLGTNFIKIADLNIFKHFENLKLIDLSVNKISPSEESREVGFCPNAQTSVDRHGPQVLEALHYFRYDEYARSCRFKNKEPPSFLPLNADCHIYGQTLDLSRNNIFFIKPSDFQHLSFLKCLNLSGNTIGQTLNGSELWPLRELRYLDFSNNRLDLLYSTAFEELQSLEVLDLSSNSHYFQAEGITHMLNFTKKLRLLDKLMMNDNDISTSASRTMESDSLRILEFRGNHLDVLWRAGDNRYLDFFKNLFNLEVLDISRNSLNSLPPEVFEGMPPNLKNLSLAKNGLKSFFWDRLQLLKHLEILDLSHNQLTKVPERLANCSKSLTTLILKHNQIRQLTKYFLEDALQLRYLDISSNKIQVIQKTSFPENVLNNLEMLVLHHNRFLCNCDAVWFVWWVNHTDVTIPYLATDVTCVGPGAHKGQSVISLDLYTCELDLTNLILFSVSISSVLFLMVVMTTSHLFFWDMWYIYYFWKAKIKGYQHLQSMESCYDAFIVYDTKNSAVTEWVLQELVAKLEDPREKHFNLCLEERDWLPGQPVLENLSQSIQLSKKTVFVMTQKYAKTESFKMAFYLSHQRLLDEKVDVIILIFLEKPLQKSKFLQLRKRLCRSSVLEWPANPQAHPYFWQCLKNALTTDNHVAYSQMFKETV
Method: as §1

In the case of O=c1c(O)cccc2cc(O)c(O)c(O)c12 [NCI35676, purpurogallin, reference compound], the “inhibition of TLR3 signaling” value ([1]; 3 μM compound) is reported as “no other homologous TLRs” and the “inhibition of TLR7 signaling” value ([2]; 3 μM compound) is reported as “no other homologous TLRs”.

For CCCCCCOC(=O)c1cc(O)c(=O)c2c(O)c(O)c(OC)cc2c1 [compound 17, Hexyl 3,4,6-trihydroxy-2-methoxy-5-oxo-5H-benzo[7]annulene-8-carboxylate], the “inhibition of TLR3 signaling” value ([1]; 0.5 μM compound) was “without affecting other TLRs” and the “inhibition of TLR7 signaling” value ([2]; 0.5 μM compound) was “without affecting other TLRs”.
